Results as given in US9850283B2, “Macrocyclic inhibitors of the PD-1/PD-L1 and CD80(B7-1)/PD-L1 protein/protein interactions” (BRISTOL-MYERS SQUIBB COMPANY, priority 2013, dated 2017).
Where two headings read alike, the source gives them in different places. Starred links: 1 amine or outer side, 2 acyl side, 3 side chain; linkers in the order of their positions; H or OH if unused. Positions of bridges follow the written chain, without caps; N, C: chain ends. Non-standard residues stand in square brackets, D forms with d. Residues, ends and D or L forms follow the SMILES beside them. ξ: configuration not given here. Trp(5-OH) = N[C@@H](Cc1c[nH]c2ccc(O)cc12)C(=O)O; X15 = O=C([C@H](Cc1ccc(Cl)c(F)c1)N[*:1])[*:2]; Phe(4-CH2NH2) = NCc1ccc(C[C@H](N)C(=O)O)cc1; Bip = N[C@@H](Cc1ccc(-c2ccccc2)cc1)C(=O)O; Phe(2-F) = N[C@@H](Cc1ccccc1F)C(=O)O; Bta = N[C@@H](Cc1csc2ccccc12)C(=O)O; Hyp = O=C(O)[C@@H]1C[C@@H](O)CN1; NMeF = CN[C@@H](Cc1ccccc1)C(=O)O; NMeNle = CCCC[C@H](NC)C(=O)O; NMeM = CN[C@@H](CCSC)C(=O)O; hSer = N[C@@H](CCO)C(=O)O; NMeA = CN[C@@H](C)C(=O)O; Orn = NCCC[C@H](N)C(=O)O; Dap = NC[C@H](N)C(=O)O; ξC = NC(CS)C(=O)O; Sar = CNCC(=O)O

Assays:
[1] = target: T1, LK35.2-hPD-L1 cells / PE-labeled PD-1-Ig (Homo sapiens, UniProt Q9NZQ7); assay: LK35.2-hPD-L1 cell binding high-content screening assay; type: cell-based; settings: cluster symbol, read-out: CBA IC50 cluster
T1 construct: expressed in transfected cells; host or cells: LK35.2 mouse B cell line
T1 sequence (Q9NZQ7 19-290): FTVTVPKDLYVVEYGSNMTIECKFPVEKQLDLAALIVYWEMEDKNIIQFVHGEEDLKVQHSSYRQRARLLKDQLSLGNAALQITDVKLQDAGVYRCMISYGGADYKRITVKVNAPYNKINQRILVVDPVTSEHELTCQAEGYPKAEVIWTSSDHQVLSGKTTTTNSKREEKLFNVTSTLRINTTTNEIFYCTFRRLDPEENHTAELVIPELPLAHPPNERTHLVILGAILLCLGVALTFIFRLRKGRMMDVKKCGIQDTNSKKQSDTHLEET
Method in brief: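 Binding of PE-conjugated human PD-1-Ig (1 nM final) to human PD-L1 stably expressed on a mouse B-cell line (LK35.2) was measured by high-content imaging after washes. Compound and labeled PD-1-Ig were co-incubated 1 h at 37 °C with cells in RPMI/10% FCS.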

Human PD-L1/PD-1 = target: T2, Human PD-L1/PD-1 (Homo sapiens, UniProt Q9NZQ7); assay: HTRF PD-1-Ig/PD-L1-His binding assay (human PD-L1); settings: cluster symbol; read-out: HTRF IC50 cluster
T2 construct: made in house; host or cells: HEK293T
T2 sequence (Q9NZQ7 with tags, fused parts or gaps): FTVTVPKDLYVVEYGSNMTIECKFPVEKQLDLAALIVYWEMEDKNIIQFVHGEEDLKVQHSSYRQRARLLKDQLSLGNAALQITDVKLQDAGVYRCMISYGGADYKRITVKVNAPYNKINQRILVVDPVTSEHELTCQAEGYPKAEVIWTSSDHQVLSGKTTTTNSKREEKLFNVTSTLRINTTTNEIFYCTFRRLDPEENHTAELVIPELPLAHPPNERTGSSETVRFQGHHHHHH
Method in brief: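 The time-resolved fluorescence signal comes from Eu-cryptate anti-Ig (1 nM) and APC anti-His (20 nM) antibodies bound to a PD-1-Ig/PD-L1-His complex. Both partners lack transmembrane regions.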

[2] = cell binding assay, cell line not given
[3] = cell line of CBA not given (LK35.2-hPD-L1 or 293T-hPD-L1)

Structure (SMILES)	IC50 [1, 2]	IC50 (Human PD-L1/PD-1)	IC50 [1, 3]
CCCC[C@H]1C(=O)N[C@@H](CCCNC(=N)N)C(=O)N[C@H](C(=O)NCC(N)=O)CSCC(=O)N[C@@H](Cc2ccccc2)C(=O)N(C)[C@@H](C)C(=O)N[C@@H](CC(N)=O)C(=O)N2CCC[C@H]2C(=O)N[C@@H](Cc2cnc[nH]2)C(=O)N[C@@H](CC(C)C)C(=O)N(C)CC(=O)N[C@@H](Cc2c[nH]c3ccccc23)C(=O)N[C@@H](CO)C(=O)N[C@@H](Cc2c[nH]c3ccccc23)C(=O)N[C@@H](C)C(=O)N1C [Example 1057] (HELM PEPTIDE1{[O=C(C[*:3])[*:2]].F.[meA].N.P.H.L.[Sar].W.S.W.A.[CCCC[C@@H](C(=O)[*:2])N(C)[*:1]].R.C.G.[am]}$PEPTIDE1,PEPTIDE1,1:R3-15:R3$$$V2.0)		> 30.5 nM	> 74.3 nM
CCCC[C@H]1C(=O)N(C)CC(=O)N[C@@H](CC(=O)O)C(=O)N[C@@H](C(C)C)C(=O)N(C)[C@@H](Cc2ccccc2)C(=O)N[C@@H](Cc2ccc(O)cc2)C(=O)N(C)CC(=O)N[C@@H](Cc2c[nH]c3ccccc23)C(=O)N[C@@H](Cc2ccc(O)cc2)C(=O)N[C@@H](CC(C)C)C(=O)N[C@H](C(=O)NCC(N)=O)CSCC(=O)N[C@@H](Cc2ccccc2F)C(=O)N(C)[C@@H](Cc2ccccc2)C(=O)N1C [Example 3568] ({CH2CO}-[Phe(2-F)][NMeF][NMeNle][Sar]DV[NMeF]Y[Sar]WYLCG-NH2; thioether N-13)	4.78 to 72.9 nM	> 30.5 nM	
CCCC[C@H]1C(=O)N(C)CC(=O)N[C@@H](CC(=O)O)C(=O)N[C@@H](C(C)C)C(=O)N(C)[C@@H](Cc2ccccc2)C(=O)N[C@@H](Cc2ccc(O)cc2)C(=O)N(C)CC(=O)N[C@@H](Cc2c[nH]c3ccccc23)C(=O)N[C@@H](Cc2ccc(O)cc2)C(=O)N[C@@H](CC(C)C)C(=O)N[C@H](C(=O)NCC(N)=O)C(C)(C)SCC(=O)N[C@@H](Cc2ccccc2)C(=O)N(C)[C@@H](Cc2ccccc2)C(=O)N1C [Example 3087] (HELM PEPTIDE1{[O=C(C[*:3])[*:2]].F.[meF].[CCCC[C@@H](C(=O)[*:2])N(C)[*:1]].[Sar].D.V.[meF].Y.[Sar].W.Y.L.[Pen].G.[am]}$PEPTIDE1,PEPTIDE1,1:R3-14:R3$$$V2.0)		> 30.5 nM	> 74.3 nM
CCCC[C@H]1C(=O)N(C)CC(=O)N[C@@H](CC(=O)O)C(=O)N[C@@H](C(C)C)C(=O)N(C)[C@@H](Cc2ccccc2)C(=O)N[C@@H](Cc2ccc(O)cc2)C(=O)N(C)CC(=O)N[C@@H](Cc2c[nH]c3ccccc23)C(=O)N[C@@H](Cc2ccc(O)cc2)C(=O)N[C@@H](CC(C)C)C(=O)N[C@H](C(=O)NCC(N)=O)CSCC(=O)N[C@@H](Cc2ccc(CN)cc2)C(=O)N(C)[C@@H](Cc2ccccc2)C(=O)N1C [Example 3063] ({CH2CO}-[Phe(4-CH2NH2)][NMeF][NMeNle][Sar]DV[NMeF]Y[Sar]WYLCG-NH2; thioether N-13)		> 30.5 nM	> 74.3 nM
CCCC[C@H]1C(=O)N(C)CC(=O)N[C@@H](CC(=O)O)C(=O)N[C@@H](C(C)C)C(=O)N(C)[C@@H](Cc2ccccc2)C(=O)N[C@@H](Cc2ccc(O)cc2)C(=O)N(C)CC(=O)N[C@@H](Cc2c[nH]c3ccccc23)C(=O)N[C@@H](Cc2ccc(-c3ccccc3)cc2)C(=O)N[C@@H](CC(C)C)C(=O)N[C@H](C(=O)NCC(N)=O)CSCC(=O)N[C@@H](Cc2ccccc2)C(=O)N(C)[C@@H](Cc2ccccc2)C(=O)N1C [Example 3547] ({CH2CO}-F[NMeF][NMeNle][Sar]DV[NMeF]Y[Sar]W[Bip]LCG-NH2; thioether N-13)	> 74.3 nM	> 30.5 nM	
CCCC[C@H]1C(=O)N(C)[C@@H](CCCC)C(=O)N[C@@H](CCCNC(=N)N)C(=O)N[C@H](C(=O)NCC(N)=O)CSCC(=O)N[C@@H](Cc2ccccc2)C(=O)N(C)[C@@H](C)C(=O)N[C@@H](CC(N)=O)C(=O)N2CCC[C@H]2C(=O)N[C@@H](Cc2cnc[nH]2)C(=O)N[C@@H](CC(C)C)C(=O)N(C)CC(=O)N[C@@H](Cc2c[nH]c3ccccc23)C(=O)N[C@H](CO)C(=O)N[C@@H](Cc2c[nH]c3ccccc23)C(=O)N1C [Example 1065] ({CH2CO}-F[NMeA]NPHL[Sar]W[dS]W[NMeNle][NMeNle]RCG-NH2; thioether N-14)		> 30.5 nM	> 74.3 nM
CCCC[C@H]1C(=O)N(C)CC(=O)N[C@@H](CC(=O)O)C(=O)N[C@@H](C(C)C)C(=O)N(C)[C@@H](Cc2ccccc2)C(=O)N[C@@H](Cc2ccc(O)cc2)C(=O)N(C)CC(=O)N[C@@H](Cc2c[nH]c3ccccc23)C(=O)N[C@@H](Cc2ccc(O)cc2)C(=O)N[C@@H](CC(C)C)C(=O)N[C@H](C(=O)NCC(N)=O)CSCC(=O)N[C@@H](Cc2ccc(Cl)c(F)c2)C(=O)N(C)[C@@H](Cc2ccccc2)C(=O)N1C [Example 3180] ({CH2CO}-[X15][NMeF][NMeNle][Sar]DV[NMeF]Y[Sar]WYLCG-NH2; thioether N-13)		6.76 to 30.3 nM	0.158 to 4.71 nM
CCCC[C@H]1C(=O)N(C)CC(=O)N[C@@H](CC(=O)O)C(=O)N[C@@H](C(C)C)C(=O)N(C)[C@@H](Cc2ccccc2)C(=O)N[C@@H](Cc2ccc(O)cc2)C(=O)N(C)CC(=O)N[C@@H](Cc2csc3ccccc23)C(=O)N[C@@H](Cc2ccc(O)cc2)C(=O)N[C@@H](CC(C)C)C(=O)N[C@H](C(=O)NCC(N)=O)CSCC(=O)N[C@@H](Cc2ccccc2)C(=O)N(C)[C@@H](Cc2ccccc2)C(=O)N1C [Example 3062] ({CH2CO}-F[NMeF][NMeNle][Sar]DV[NMeF]Y[Sar][Bta]YLCG-NH2; thioether N-13)		0.385 to 6.74 nM	4.78 to 72.9 nM
CCCC[C@H]1C(=O)N(C)CC(=O)N[C@@H](CC(=O)O)C(=O)N[C@@H](C(C)C)C(=O)N(C)[C@@H](Cc2ccccc2)C(=O)N[C@@H](Cc2c[nH]c3ccc(O)cc23)C(=O)N(C)CC(=O)N[C@@H](Cc2c[nH]c3ccccc23)C(=O)N[C@@H](Cc2ccc(O)cc2)C(=O)N[C@@H](CC(C)C)C(=O)N[C@H](C(=O)NCC(N)=O)CSCC(=O)N[C@@H](Cc2ccccc2)C(=O)N(C)[C@@H](Cc2ccccc2)C(=O)N1C [Example 3148] ({CH2CO}-F[NMeF][NMeNle][Sar]DV[NMeF][Trp(5-OH)][Sar]WYLCG-NH2; thioether N-13)		6.76 to 30.3 nM	4.78 to 72.9 nM

Second part, the compound after the results:

IC50 [1, 2]	IC50 (Human PD-L1/PD-1)	IC50 [1, 3]	Structure (SMILES)
0.158 to 4.71 nM	0.385 to 6.74 nM		CCCC[C@H]1C(=O)N(C)[C@@H](CCSC)C(=O)N[C@@H](C)C(=O)NC(C(=O)NCC(N)=O)CSCC(=O)N[C@@H](Cc2ccc(O)cc2)C(=O)N(C)[C@@H](C)C(=O)N[C@@H](CC(N)=O)C(=O)N2CCC[C@H]2C(=O)N[C@@H](CN)C(=O)N[C@@H](CC(C)C)C(=O)N2C[C@H](O)C[C@H]2C(=O)N[C@@H](Cc2c[nH]c3ccccc23)C(=O)N[C@@H](CO)C(=O)N[C@@H](Cc2csc3ccccc23)C(=O)N1C (stereo partly shown) [Example 9088] ({CH2CO}-Y[NMeA]NP[Dap]L[Hyp]WS[Bta][NMeNle][NMeM]A[ξC]G-NH2; thioether N-14)
0.158 to 4.71 nM	0.385 to 6.74 nM		CCCC[C@H]1C(=O)N(C)[C@@H](CCCC)C(=O)N[C@@H](CCCNC(=N)N)C(=O)N[C@H](C(=O)NCC(=O)NCC(=O)NCC(N)=O)CSCC(=O)N[C@@H](Cc2ccc(O)cc2)C(=O)N(C)[C@@H](C)C(=O)N[C@@H](CC(N)=O)C(=O)N2CCC[C@H]2C(=O)N[C@@H](Cc2cnc[nH]2)C(=O)N[C@@H](CC(C)C)C(=O)N2CCC[C@H]2C(=O)N[C@@H](Cc2c[nH]c3ccccc23)C(=O)N[C@@H](CO)C(=O)N[C@@H](Cc2c[nH]c3ccccc23)C(=O)N1C [Example 6020] ({CH2CO}-Y[NMeA]NPHLPWSW[NMeNle][NMeNle]RCGGG-NH2; thioether N-14)
0.158 to 4.71 nM	0.385 to 6.74 nM		CCCC[C@H]1C(=O)N(C)[C@@H](CCCC)C(=O)N[C@@H](CCCNC(=N)N)C(=O)NC(C(=O)NCC(N)=O)CSCC(=O)N[C@@H](Cc2ccc(O)cc2)C(=O)N(C)[C@@H](C)C(=O)N[C@@H](CC(N)=O)C(=O)N2CCC[C@H]2C(=O)N[C@@H](Cc2cnc[nH]2)C(=O)N[C@@H](CC(C)C)C(=O)N2C[C@H](O)C[C@H]2C(=O)N[C@@H](Cc2c[nH]c3ccccc23)C(=O)N[C@@H](CCO)C(=O)N[C@@H](Cc2c[nH]c3ccccc23)C(=O)N1C (stereo partly shown) [Example 9049] ({CH2CO}-Y[NMeA]NPHL[Hyp]W[hSer]W[NMeNle][NMeNle]R[ξC]G-NH2; thioether N-14)
0.158 to 4.71 nM	0.385 to 6.74 nM		CCCC[C@H]1C(=O)N(C)[C@@H](CCCC)C(=O)N[C@@H](CCCNC(=N)N)C(=O)N[C@H](C(=O)NCC(N)=O)CSCC(=O)N[C@@H](Cc2ccc(O)cc2)C(=O)N(C)[C@@H](C)C(=O)N[C@@H](CCCN)C(=O)N2CCC[C@H]2C(=O)N[C@@H](Cc2c[nH]cn2)C(=O)N[C@@H](CCC(=O)O)C(=O)N2C[C@H](O)C[C@H]2C(=O)N[C@@H](Cc2c[nH]c3ccccc23)C(=O)N[C@@H](CO)C(=O)N[C@@H](Cc2c[nH]c3ccccc23)C(=O)N1C [Example 5113] ({CH2CO}-Y[NMeA][Orn]PHE[Hyp]WSW[NMeNle][NMeNle]RCG-NH2; thioether N-14)
4.78 to 72.9 nM	6.76 to 30.3 nM		CCCC[C@H]1C(=O)N(C)[C@@H](CCCC)C(=O)N[C@@H](CCCNC(=N)N)C(=O)N[C@H](C(=O)NCC(N)=O)CSCC(=O)N[C@@H](Cc2ccccc2)C(=O)N(C)[C@@H](C)C(=O)N[C@@H](CC(N)=O)C(=O)N2CCC[C@H]2C(=O)N[C@@H](Cc2cnc[nH]2)C(=O)N[C@@H](CCCCN)C(=O)N(C)CC(=O)N[C@@H](Cc2c[nH]c3ccccc23)C(=O)N[C@@H](CO)C(=O)N[C@@H](Cc2c[nH]c3ccccc23)C(=O)N1C [Example 6004] ({CH2CO}-F[NMeA]NPHK[Sar]WSW[NMeNle][NMeNle]RCG-NH2; thioether N-14)
